{"source": "paper PMC3681751", "about": "“Identification of a Novel Antimicrobial Peptide from Human Hepatitis B Virus Core Protein Arginine-Rich Domain (ARD)” (PLoS Pathogens, 2013)", "key": {"C. albicans (ATCC 10231)": {"system": "C. albicans (ATCC 10231)", "type": "cell-based, Candida albicans", "experimental": "The antimicrobial activities of HBc ARD peptides were tested using a number of bacterial strains from ATCC, including Pseudomonas aeruginosa Migula strain (ATCC 27853, ampicillin-resistant), Pseudomonas aeruginosa Migula strain (ATCC 9027, ampicillin-resistant), Klebsiella pneumoniae strain (ATCC 17593), Escherichia coli strain (ATCC 25922), Staphylococcus aureus subsp. strain (ATCC 25923, methicillin-resistant), Staphylococcus aureus subsp. strain (ATCC 29213, methicillin-resistant), Staphylococcus aureus subsp. strain (ATCC 19636, methicillinresistant), and Candida albicans strain (ATCC 10231).\n(§1) All peptides were purchased from Yao-Hong Biotechnology Inc. (Taipei, Taiwan). Vendors provided data of peptide characterizations, including HPLC and Mass (data not shown). Antimicrobial activity was determined as described with some modifications as detailed below. Bacteria were grown overnight in Mueller–Hinton broth (Difco) at 37°C, and during the mid-logarithmic phase, bacteria were diluted to 10^6 CFU (colony formation unit)/ml in phosphate buffer (10 mM sodium phosphate and 50 mM sodium chloride, pH 7.2). Peptides were serially diluted in the same buffer. Fifty microliter (µl) of bacteria was mixed with fifty µl of peptides at varying concentrations followed by incubation at 37°C for 3 hours without shaking. At the end of incubation, bacteria were placed on Mueller-Hinton broth agar plates, and allowed growth at 37°C overnight for measurement of minimal bactericidal concentration (MBC). […] All peptides were tested in triplicate."}, "P. aeruginosa NHRI-01": {"system": "P. aeruginosa NHRI-01", "type": "cell-based, Pseudomonas aeruginosa", "conditions": "colistin-resistant P. aeruginosa of Table 2", "excerpt": "(§2) Clinical isolates of Pseudomonas aeruginosa (NHRI-01, NHRI-02 and NHRI-04) were obtained through the program of Taiwan Surveillance of Antimicrobial Resistance (TSAR), National Health Research Institutes (NHRI), Taiwan. Acinetobacter baumannii (ATCC 17989, ATCC 17978 CR, ATCC19606, ATCC 19606 CR, TCGH 45530 and TCGH 46709) were obtained from Tzu-Chi Buddhist General Hospital (TCGH) in Taiwan, and clinical isolates (TCGH 45530 and TCGH 46709) were identified using the Vitek system (Biomerieux Vitek, Inc., Hazelwood, MO, USA). A. baumannii is defined as multidrug-resistant, when the organism is resistant to piperacillin, piperacillin-tazobactam, ampicillin/sulbactam, imipenem, ceftazidime, gentamicin, amikacin, tetracycline, chloramphenicol, ciprofloxacin, and cotrimoxazole. Susceptibility to colistin was determined using the broth-dilution method, in accordance with the guidelines of the Clinical and Laboratory Standards Institute (CLSI).\nas §1"}, "P. aeruginosa NHRI-02": {"system": "P. aeruginosa NHRI-02", "type": "cell-based, Pseudomonas aeruginosa", "conditions": "NHRI-02, 3 h", "excerpt": "as §2, §1"}, "P. aeruginosa NHRI-04": {"system": "P. aeruginosa NHRI-04", "type": "cell-based, Pseudomonas aeruginosa", "conditions": "NHRI-04, 3 h", "excerpt": "as §2, §1"}, "[1]": {"system": "A. baumannii ATCC17978 CR", "type": "cell-based, Acinetobacter baumannii", "conditions": "colistin-resistant A. baumannii of Table 2", "excerpt": "as §2, §1"}, "A. baumannii ATCC17978": {"system": "A. baumannii ATCC17978", "type": "cell-based, Acinetobacter baumannii", "conditions": "text summary over the A. baumannii strains of Table 2", "excerpt": "as §2, §1"}, "[2]": {"system": "A. baumannii ATCC19606 CR", "type": "cell-based, Acinetobacter baumannii", "conditions": "Induced Colistin resistant strain; colistin susceptibility by broth-dilution (CLSI)", "excerpt": "as §2, §1"}, "A. baumannii ATCC19606": {"system": "A. baumannii ATCC19606", "type": "cell-based, Acinetobacter baumannii", "conditions": "ATCC19606, 3 h", "excerpt": "as §2, §1"}, "A. baumannii TCGH45530": {"system": "A. baumannii TCGH45530", "type": "cell-based, Acinetobacter baumannii", "conditions": "TCGH45530, 3 h", "excerpt": "as §2, §1"}, "A. baumannii TCGH46709": {"system": "A. baumannii TCGH46709", "type": "cell-based, Acinetobacter baumannii", "conditions": "TCGH46709, 3 h", "excerpt": "as §2, §1"}, "S. aureus [3]": {"system": "S. aureus", "assay": "Killing kinetics", "type": "cell-based, Staphylococcus aureus", "conditions": "4 µM peptide (1×MBC), 37°C, triplicates", "experimental": "For measurement of killing kinetics, bacteria and peptides were prepared as described above. Fifty µl of bacteria were mixed with fifty µl of peptides at the concentrations corresponding to MBC and were incubated at 37°C. At the indicated time, bacteria were serially diluted and placed on Mueller-Hinton broth agar plates for the viability measurement."}, "S. aureus [4]": {"system": "S. aureus", "assay": "SYTOX Green uptake (membrane permeabilization)", "type": "cell-based, Staphylococcus aureus", "conditions": "4 µM peptide; 10^7 CFU, 1 µM SYTOX Green, 37°C", "experimental": "Briefly, bacteria (10^7 CFU) were prepared and mixed with 1 µM SYTOX Green (Invitrogen) for 15 minutes in the dark. […] Melittin (Sigma), the major toxin of bee venom, was used as a positive control to provide maximal permeabilization."}, "Vero cells": {"system": "Vero cells", "assay": "Cytotoxicity, MTT assay", "type": "cell-based, monkey", "conditions": "1 hour at 37°C; HBc147-183 at 100 µM, melittin at 3.125 µM; triplicates", "experimental": "Cytotoxicity was measured for HepG2, Huh7, HEK293, and Vero cells by MTT assay. Cells were seeded at 10^4 cells/well in a 96-well plate and serial dilutions of peptides were added into each well. PBS was used as a negative control and melittin was used as a positive control. After 1 hour of incubation, the medium were replaced by fresh medium containing 10% MTT solution (Promega), and the plate was incubated for 4 hours in 5% CO2 at 37°C. The absorbance at the wavelength of 595 nm was measured by an ELISA reader (Bio-Rad model 680)."}, "[5]": {"system": "Klebsiella pneumoniae Xen39", "assay": "IVIS imaging of infected mice", "type": "in vivo", "conditions": "10 mg/kg at 1 hour, imaged 4 hours post-inoculation; 10^7 cfu/mouse; n = 5; P<0.01 vs PBS"}}, "note": "Where two headings read alike, the source gives them in different places. Residues, ends and D or L forms follow the SMILES beside them."}
{"smiles": "CC(C)[C@H](NC(=O)[C@@H](NC(=O)[C@@H](N)[C@@H](C)O)C(C)C)C(=O)N[C@@H](CCCNC(=N)N)C(=O)N[C@@H](CCCNC(=N)N)C(=O)N[C@@H](CCCNC(=N)N)C(=O)NCC(=O)N[C@@H](CCCNC(=N)N)C(=O)N[C@@H](CO)C(=O)N1CCC[C@H]1C(=O)N[C@@H](CCCNC(=N)N)C(=O)N[C@@H](CCCNC(=N)N)C(=O)N[C@@H](CCCNC(=N)N)C(=O)N[C@H](C(=O)N1CCC[C@H]1C(=O)N[C@@H](CO)C(=O)N1CCC[C@H]1C(=O)N[C@@H](CCCNC(=N)N)C(=O)N[C@@H](CCCNC(=N)N)C(=O)N[C@@H](CCCNC(=N)N)C(=O)N[C@@H](CCCNC(=N)N)C(=O)N[C@@H](CO)C(=O)N[C@@H](CCC(N)=O)C(=O)N[C@@H](CO)C(=O)N1CCC[C@H]1C(=O)N[C@@H](CCCNC(=N)N)C(=O)N[C@@H](CCCNC(=N)N)C(=O)N[C@@H](CCCNC(=N)N)C(=O)N[C@@H](CCCNC(=N)N)C(=O)N[C@@H](CO)C(=O)N[C@@H](CCC(N)=O)C(=O)N[C@@H](CO)C(=O)N[C@@H](CCCNC(=N)N)C(=O)N[C@@H](CCC(=O)O)C(=O)N[C@@H](CO)C(=O)N[C@@H](CCC(N)=O)C(=O)N[C@@H](CS)C(=O)O)[C@@H](C)O", "note": "[HBc147-183] (H-TVVRRRGRSPRRRTPSPRRRRSQSPRRRRSQSRESQC-OH; N-terminus and C-terminus assumed)", "values": [{"measurement": "Antimicrobial activity, MBC", "setting": "C. albicans (ATCC 10231); ATCC 10231, 3 h, pH 7.2", "result": "~8", "unit": "µM"}, {"measurement": "Antimicrobial activity, MBC", "setting": "C. albicans (ATCC 10231); fungi, 3 h at 37°C in phosphate buffer pH 7.2, triplicate", "result": "~36.7", "unit": "µg/mL"}, {"measurement": "MBC against colistin-resistant P. aeruginosa", "setting": "P. aeruginosa NHRI-01", "result": "> 16", "unit": "µM"}, {"measurement": "MBC against colistin-sensitive P. aeruginosa", "setting": "P. aeruginosa NHRI-02", "result": 4, "unit": "µM"}, {"measurement": "MBC", "setting": "P. aeruginosa NHRI-04", "result": 18.36, "unit": "µg/mL"}, {"measurement": "MBC against all tested colistin-resistant A. baumannii", "setting": "[1]", "result": "0.5 to 1", "unit": "µM"}, {"measurement": "MBC against colistin-sensitive and colistin-resistant A. baumannii", "setting": "A. baumannii ATCC17978", "result": "0.5 to 1", "unit": "µM"}, {"measurement": "MBC", "setting": "[2]", "result": 2.30, "unit": "µg/mL"}, {"measurement": "MBC", "setting": "A. baumannii ATCC19606", "result": 2.30, "unit": "µg/mL"}, {"measurement": "MBC", "setting": "A. baumannii TCGH45530", "result": 2.30, "unit": "µg/mL"}, {"measurement": "MBC", "setting": "A. baumannii TCGH46709", "result": 4.59, "unit": "µg/mL"}, {"measurement": "Time to complete killing", "setting": "S. aureus [3]", "result": 120, "unit": "min"}, {"measurement": "Membrane permeabilization (SYTOX Green uptake)", "setting": "S. aureus [4]", "result": "not able to induce membrane permeabilization"}, {"measurement": "Cell viability / cytotoxicity (MTT)", "setting": "Vero cells", "result": "low level of cytotoxicity"}, {"measurement": "Bioluminescence of infected mice", "setting": "[5]", "result": "very weak"}]}
